Square brackets hold non-standard residues; d marks the D form. Peptide text beside a SMILES is read from it. NMeF = CN[C@@H](Cc1ccccc1)C(=O)O; NMeS = CN[C@@H](CO)C(=O)O; Sar = CNCC(=O)O
Columns and labels:
[1] = molecular target: Human immunodeficiency virus type 1 integrase (Human immunodeficiency virus 1) (UniProt Q7ZJM1); experiment: Binding affinity to HIV-1 integrase measured after overnight incubation by chemiluminescence analysis relative to IN 118-128; parameters: concentration or dose not given beside the values
[2] = test system: Human immunodeficiency virus 1; experiment: Binding affinity to HLT-tagged HIV-1 Rev measured after overnight incubation by chemiluminescence analysis relative to IN 118-128; parameters: concentration or dose not given beside the values

Sequence of Human immunodeficiency virus type 1 integrase (Human immunodeficiency virus 1) (Q7ZJM1 as listed by the source): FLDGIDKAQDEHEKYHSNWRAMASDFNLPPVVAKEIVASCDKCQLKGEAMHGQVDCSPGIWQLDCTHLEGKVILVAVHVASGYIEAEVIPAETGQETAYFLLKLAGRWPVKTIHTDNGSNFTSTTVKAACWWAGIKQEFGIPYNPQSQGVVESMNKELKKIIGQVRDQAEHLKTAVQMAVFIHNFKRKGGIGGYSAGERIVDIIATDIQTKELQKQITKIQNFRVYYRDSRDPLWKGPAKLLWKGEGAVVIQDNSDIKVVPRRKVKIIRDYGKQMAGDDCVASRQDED

Question: Which results are given for CC(C)[C@H](NC(=O)[C@@H](NC(=O)[C@@H](NC(=O)[C@H](CO)NC(=O)[C@@H](NC(=O)[C@H](Cc1ccccc1)N(C)C(=O)[C@H](CC(N)=O)NC(=O)[C@H](CO)NC(=O)CN)[C@@H](C)O)[C@@H](C)O)[C@@H](C)O)C(=O)N[C@@H](CCCCN)C(=O)N[C@@H](C)C(=O)O (H-GSN[NMeF]TSTTVKA-OH)?
Answer: Activity [1]: 195%; Activity [2]: 177%

Question: Which Activity [1] does the source give for CC(C)[C@H](NC(=O)[C@@H](NC(=O)[C@@H](NC(=O)[C@H](CO)NC(=O)[C@@H](NC(=O)[C@H](Cc1ccccc1)NC(=O)[C@H](CC(N)=O)NC(=O)[C@H](CO)N(C)C(=O)CN)[C@@H](C)O)[C@@H](C)O)[C@@H](C)O)C(=O)N[C@@H](CCCCN)C(=O)N[C@@H](C)C(=O)O (H-G[NMeS]NFTSTTVKA-OH) here?
Answer: 182%

Question: What about the Activity [2] of the same compound?
Answer: 293%

Question: How did the Activity [1] turn out when CC(C)[C@H](NC(=O)[C@@H](NC(=O)[C@@H](NC(=O)[C@H](CO)NC(=O)[C@@H](NC(=O)[C@H](Cc1ccccc1)NC(=O)[C@@H](N)CC(N)=O)[C@@H](C)O)[C@@H](C)O)[C@@H](C)O)C(=O)N[C@@H](CCCCN)C(=O)N[C@@H](C)C(=O)O (H-NFTSTTVKA-OH) was run?
Answer: 119%

Question: What about the Activity [2] of the same compound?
Answer: 152%

Question: For CC(C)[C@H](NC(=O)[C@@H](NC(=O)[C@@H](NC(=O)[C@H](CO)NC(=O)[C@@H](NC(=O)[C@H](Cc1ccccc1)NC(=O)[C@H](CC(N)=O)NC(=O)[C@@H](N)CO)[C@@H](C)O)[C@@H](C)O)[C@@H](C)O)C(=O)N[C@@H](CCCCN)C(=O)N[C@@H](C)C(=O)O (H-SNFTSTTVKA-OH), which Activity [1] is on record?
Answer: 207%

Question: What about the Activity [2] of the same compound?
Answer: 177%

Question: Which results are given for CC(C)[C@H](NC(=O)[C@@H](NC(=O)[C@@H](NC(=O)[C@@H](N)CO)[C@@H](C)O)[C@@H](C)O)C(=O)N[C@@H](CCCCN)C(=O)N[C@@H](C)C(=O)O (H-STTVKA-OH)?
Answer: Activity [1]: 144%; Activity [2]: 187%

Question: Which results are given for CC(C)[C@H](NC(=O)[C@@H](NC(=O)[C@@H](NC(=O)[C@H](CO)NC(=O)[C@@H](N)[C@@H](C)O)[C@@H](C)O)[C@@H](C)O)C(=O)N[C@@H](CCCCN)C(=O)N[C@@H](C)C(=O)O (H-TSTTVKA-OH)?
Answer: Activity [1]: 135%; Activity [2]: 111%

Question: How did the Activity [1] turn out when CNCC(=O)N[C@@H](CO)C(=O)N[C@@H](CC(N)=O)C(=O)N[C@@H](Cc1ccccc1)C(=O)N[C@H](C(=O)N[C@@H](CO)C(=O)N[C@H](C(=O)N[C@H](C(=O)N[C@H](C(=O)N[C@@H](CCCCN)C(=O)N[C@@H](C)C(=O)O)C(C)C)[C@@H](C)O)[C@@H](C)O)[C@@H](C)O (H-[Sar]SNFTSTTVKA-OH) was run?
Answer: 181%

Question: What about the Activity [2] of the same compound?
Answer: 294%

— ChEMBL document CHEMBL3217454, “Structureactivity relationship studies using peptide arrays: the example of HIV-1 Revintegrase interaction” (Medchemcomm, 2013)
